Test system: iCell Cardiomyocytes^2
Assay: Cardiotoxicity assessment: cell-secreted BNP before and after drug addition (Human BNP ELISA Kit), 1060R 96-well plate
Assay type: cell-based
Conditions: Example 1; 1060R 96-well plate (surface free energy 34 mN/m), fibronectin coated; final doxorubicin 10^-6 M to 10^-14 M; 16 hours at 37° C.; n=3; FIG. 1
Source text: As a culture container a 96-well plate with 96 cylindrical wells each having a bottom area of 0.32 cm^2 was obtained by injection molding of ZEONOR® 1060R (ZEONOR is a registered trademark in Japan, other countries, or both) (ZEON Corporation, hydrogenated norbornene ring-opened polymer, hereinafter simply “1060R”) as an alicyclic structure-containing polymer. The culture container was sterilized with ethylene oxide gas (hereinafter, this culture container is referred to as “1060R 96-well plate”). The surface free energy at the inner bottom surface (cell-contacting surface, or culture surface) of each well of the 1060R 96-well plate was 34 mN/m. The surface free energy was measured using surface energy evaluation inks (Arcotest GmbH).
To each well of the […] 96-well plate was added 200 μL of 10 μg/mL human fibronectin (Corning Incorporated, product number: 356008) solution in sterile water and incubated at 37° C. for 2 hours to coat the inner bottom surface of each well with human fibronectin. Human fibronectin solution was removed from each well. […]
Supernatant samples before and after doxorubicin addition were measured for BNP level using Human BNP ELISA Kit (RayBiotech, product number: ELH-BNP).

With `COc1cccc2c1C(=O)c1c(O)c3c(c(O)c1C2=O)C[C@@](O)(C(=O)CO)C[C@@H]3O[C@H]1C[C@H](N)[C@H](O)[C@H](C)O1` [doxorubicin] the “cell-secreted BNP concentration difference before and after addition of doxorubicin” value was “BNP concentration difference increases with increasing doxorubicin concentration”.

Reference: patent US20220034868A1, “CARDIOTOXICITY ASSESSMENT METHOD” (ZEON CORPORATION, priority 2018, published 2022)
